Results published in ChEMBL document CHEMBL4823282, “Novel Broad-Spectrum Antimicrobial Peptide Derived from Anoplin and Its Activity on Bacterial Pneumonia in Mice” (J Med Chem, 2021).
Values after ≈ are worked out from the molar mass of the structure shown. Active and inactive are the calls of the source. No cut-off for these calls is given here. Where a SMILES comes first, the peptide text is derived from it.

Experiments:
[1] = system: Staphylococcus aureus; test: Antibacterial activity against Staphylococcus aureus ATCC 25923 incubated for 18 hrs by CLSI based broth dilution method; format: functional
[2] = system: Bacillus subtilis; test: Antibacterial activity against Bacillus subtilis ATCC 23857 incubated for 18 hrs by CLSI based broth dilution method; format: functional
[3] = system: Enterococcus faecalis; test: Antibacterial activity against Enterococcus faecalis ATCC 29212 incubated for 18 hrs by CLSI based broth dilution method; format: functional
[4] = system: Staphylococcus epidermidis; test: Antibacterial activity against Staphylococcus epidermidis ATCC 12228 incubated for 18 hrs by CLSI based broth dilution method; format: functional
[5] = system: Escherichia coli; test: Antibacterial activity against Escherichia coli ATCC 25922 incubated for 18 hrs by CLSI based broth dilution method; format: functional
[6] = system: Pseudomonas aeruginosa; test: Antibacterial activity against Pseudomonas aeruginosa ATCC 27853 incubated for 18 hrs by CLSI based broth dilution method; format: functional
[7] = system: Klebsiella pneumoniae; test: Antibacterial activity against Klebsiella pneumoniae ATCC 700603 incubated for 18 hrs by CLSI based broth dilution method; format: functional
[8] = system: Acinetobacter baumannii; test: Antibacterial activity against Acinetobacter baumannii ATCC 19606 incubated for 18 hrs by CLSI based broth dilution method; format: functional; conditions: ATCC 19606 = CIP 70.34 = JCM 6841
[9] = system: Erythrocyte; test: Hemolytic activity in BALB/C mouse erythrocytes incubated for 1 hr by absorbance method; format: ADME, cell-based
[10] = Cytotoxicity against human glomerular mesangial cells incubated for 12 hrs by MTT assay; format: cell-based; conditions: Glomerular mesangial cell
[11] = system: Bacteria; test: Antibacterial activity against bacteria incubated for 18 hrs by CLSI based broth dilution method; format: functional
[12] = system: Fungi; test: Antibacterial activity against fungi incubated for 18 hrs by CLSI based broth dilution method; format: functional
[13] = Selectivity ratio of MHC10 for BALB/C mouse erythrocytes to MIC for bacteria; format: toxicity
[14] = Selectivity ratio of MHC10 for BALB/C mouse erythrocytes to MIC for fungi; format: toxicity
[15] = system: Bacteria; test: Antibacterial activity against Gram-positive bacteria incubated for 18 hrs by CLSI based broth dilution method; format: functional
[16] = Selectivity ratio of MHC10 for BALB/C mouse erythrocytes to MIC for gram positive bacteria; format: toxicity
[17] = system: Bacteria; test: Antibacterial activity against Gram-negative bacteria incubated for 18 hrs by CLSI based broth dilution method; format: functional
[18] = Selectivity ratio of MHC10 for BALB/C mouse erythrocytes to MIC for gram-negative bacteria; format: toxicity
[19] = system: Pseudomonas aeruginosa; test: Synergistic antibacterial activity against Pseudomonas aeruginosa ATCC 27853 at 2 times MIC incubated for 18 to 24 hrs in presence of 2 times MIC of rifampicin by broth microdilution assay based checkerboard assay; format: functional; conditions: time 18-24 hrs
[20] = system: Pseudomonas aeruginosa; test: Synergistic antibacterial activity against Pseudomonas aeruginosa ATCC 27853 at 2 times MIC incubated for 18 to 24 hrs in presence of 2 times MIC of polymyxin B by broth microdilution assay based checkerboard assay; format: functional; conditions: time 18-24 hrs
[21] = system: Escherichia coli; test: Synergistic antibacterial activity against Escherichia coli ATCC 25922 at 2 times MIC incubated for 18 to 24 hrs in presence of 2 times MIC of rifampicin by broth microdilution assay based checkerboard assay; format: functional; conditions: time 18-24 hrs
[22] = system: Escherichia coli; test: Synergistic antibacterial activity against Escherichia coli ATCC 25922 at 2 times MIC incubated for 18 to 24 hrs in presence of 2 times MIC of polymyxin B by broth microdilution assay based checkerboard assay; format: functional; conditions: time 18-24 hrs
[23] = system: Escherichia coli; test: Synergistic antibacterial activity against Escherichia coli ATCC 25922 at 2 times MIC incubated for 18 to 24 hrs in presence of 2 times MIC of gentamycin by broth microdilution assay based checkerboard assay; format: functional; conditions: time 18-24 hrs
[24] = system: Klebsiella pneumoniae; test: Synergistic antibacterial activity against Klebsiella pneumoniae ATCC 700603 at 2 times MIC incubated for 18 to 24 hrs in presence of 2 times MIC of rifampicin by broth microdilution assay based checkerboard assay; format: functional; conditions: time 18-24 hrs
[25] = system: Klebsiella pneumoniae; test: Synergistic antibacterial activity against Klebsiella pneumoniae ATCC 700603 at 2 times MIC incubated for 18 to 24 hrs in presence of 2 times MIC of polymyxin B by broth microdilution assay based checkerboard assay; format: functional; conditions: time 18-24 hrs
[26] = system: Klebsiella pneumoniae; test: Synergistic antibacterial activity against Klebsiella pneumoniae ATCC 700603 at 2 times MIC incubated for 18 to 24 hrs in presence of 2 times MIC of gentamycin by broth microdilution assay based checkerboard assay; format: functional; conditions: time 18-24 hrs
[27] = system: Staphylococcus aureus; test: Antibacterial activity against Staphylococcus aureus ATCC 25923 incubated with 0.2 to 0.02 ug/ml chymotrypsin for 6 hrs followed by bacterial addition and measured after 18 hrs by CLSI based broth dilution method; format: functional, organism-based; conditions: dose 0.2-0.02 µg/ml
[28] = system: Cell membrane; test: Disruption of membrane integrity in Staphylococcus aureus ATCC 25923 assessed as membrane shrinking at 1 times MIC measured within 0.5 hrs by scanning electron microscopy; format: subcellular
[29] = system: Staphylococcus aureus; test: Bactericidal activity against Staphylococcus aureus ATCC 25923 at 2MIC by time-kill assay; format: functional, organism-based; conditions: time 24.0 hrs, TDE = time-dependent effect
[30] = system: Klebsiella pneumoniae; test: Bactericidal activity against Klebsiella pneumoniae 700603 at 2MIC by time-kill assay relative to control; format: functional; conditions: 2M, TDE = time-dependent effect
[31] = Stability in BALB/C mouse serum measured up to 1440 mins by HPLC analysis; format: ADME, cell-free
[32] = Stability in BALB/C mouse serum assessed as compound degradation time measured up to 1440 mins by HPLC analysis; format: ADME, cell-free; conditions: 24 h
[33] = system: Klebsiella pneumoniae; test: Antibacterial activity against Klebsiella pneumoniae ATCC 700603 incubated with 0.2 to 0.02 ug/ml chymotrypsin for 6 hrs followed by bacterial addition and measured after 18 hrs by CLSI based broth dilution method; format: functional, organism-based; conditions: dose 0.2-0.02 µg/ml, time 23.0 hrs
[34] = system: Staphylococcus aureus; test: Antibacterial activity against Staphylococcus aureus ATCC 25923 incubated with 0.2 to 0.02 ug/ml trypsin for 6 hrs followed by bacterial addition and measured after 18 hrs by CLSI based broth dilution method; format: functional, organism-based; conditions: dose 0.2-0.02 µg/ml, time 23.0 hrs
[35] = system: Klebsiella pneumoniae; test: Antibacterial activity against Klebsiella pneumoniae ATCC 700603 incubated with 0.2 to 0.02 ug/ml trypsin for 6 hrs followed by bacterial addition and measured after 18 hrs by CLSI based broth dilution method; format: functional, organism-based; conditions: dose 0.2-0.02 µg/ml, time 23.0 hrs
[36] = system: Cell membrane; test: Induction of inner membrane permeabilization in Klebsiella pneumoniae ATCC 700603 at 0.5 to 4MIC using ONPG as substrate by spectroscopic method; format: subcellular; conditions: Klebsiella pneumoniae 700603, 0.5 to 4M
[37] = system: Escherichia coli; test: Antibiofilm activity against Escherichia coli ATCC 25922 at 4 times MIC incubated for 24 hrs by crystal violet staining based assay; format: functional, organism-based
[38] = system: Klebsiella pneumoniae; test: Antibiofilm activity against Klebsiella pneumoniae ATCC 700603 at 2 to 4 times MIC incubated for 24 hrs by crystal violet staining based assay; format: functional, organism-based
[39] = system: Pseudomonas aeruginosa; test: Antibacterial activity against Pseudomonas aeruginosa ATCC 27853 at 0.5 to 4 times MIC incubated for 24 hrs by crystal violet staining based assay; format: functional, organism-based
[40] = system: Staphylococcus aureus; test: Antibacterial activity against Staphylococcus aureus ATCC 25923 at 0.5 to 1 times MIC incubated for 24 hrs by crystal violet staining based assay; format: functional, organism-based
[41] = system: Staphylococcus aureus; test: Disruption of membrane integrity in Staphylococcus aureus ATCC 25923 assessed as membrane blebbing at 1 times MIC measured within 0.5 hrs by scanning electron microscopy; format: functional, organism-based
[42] = system: Cell membrane; test: Disruption of membrane integrity in Staphylococcus aureus ATCC 25923 assessed as bacterial death at 1 times MIC measured within 0.5 hrs by scanning electron microscopy; format: subcellular
[43] = system: Staphylococcus aureus; test: Disruption of bacterial cell membrane in Staphylococcus aureus ATCC 25923 assessed as increase in PI uptake incubated for 30 to 120 mins by FACS flow cytometry; format: functional, organism-based; conditions: time 30-120 min

| SMILES | MIC [1] [µM] | MIC [2] [µM] | MIC [3] [µM] | MIC [4] [µM] | MIC [5] [µM] | MIC [6] [µM] | MIC [7] [µM] | MIC [8] [µM] | MHC10 [9] | IC50 [10] [µM] | MIC [11] [µM] | MIC [12] [µM] | selectivity ratio [13] | selectivity ratio [14] | MIC [15] [µM] | selectivity ratio at 18 h [16] | MIC [17] [µM] | selectivity ratio [18] | FIC [20] | further results |
| --- | --- | --- | --- | --- | --- | --- | --- | --- | --- | --- | --- | --- | --- | --- | --- | --- | --- | --- | --- | --- |
| CC(C)C[C@H](NC(=O)CN)C(=O)N[C@@H](Cc1c[nH]c2ccccc12)C(=O)N[C@@H](CCCCN)C(=O)N[C@@H](CCCNC(=N)N)C(=O)N[C@@H](Cc1c[nH]c2ccccc12)C(=O)N[C@@H](CCCCN)C(=O)N[C@@H](CCCCN)C(=O)N[C@@H](Cc1ccccc1)C(=O)N[C@@H](Cc1c[nH]c2ccccc12)C(N)=O (H-GLWKRWKKFW-NH2) | 8 (≈ 11.5 µg/mL) | 8 (≈ 11.5 µg/mL) | 32 (≈ 45.9 µg/mL) | 16 (≈ 22.9 µg/mL) | 8 (≈ 11.5 µg/mL) | 8 (≈ 11.5 µg/mL) | 8 (≈ 11.5 µg/mL) | 16 (≈ 22.9 µg/mL) | 83.63 µM | 39 | 10.4 (≈ 14.9 µg/mL) | 10.4 (≈ 14.9 µg/mL) | 8.06 | 8.06 | 13.5 (≈ 19.4 µg/mL) | 6.19 | 8 (≈ 11.5 µg/mL) | 10.4 | 0.25 | FIC [19]: 0.3125; FIC [21]: 0.5; FIC [22]: 0.3125; FIC [23]: 0.5; FIC [24]: 0.5625; FIC [25]: 0.5625; FIC [26]: 0.75 |
| CC[C@H](C)[C@H](NC(=O)[C@H](CCCNC(=N)N)NC(=O)[C@H](CCCCN)NC(=O)[C@H](CC(C)C)NC(=O)[C@H](CC(C)C)NC(=O)CN)C(=O)N[C@@H](CCCCN)C(=O)N[C@H](C(=O)N[C@@H](CC(C)C)C(=O)N[C@@H](CC(C)C)C(N)=O)[C@@H](C)O [ANOPLIN] (H-GLLKRIKTLL-NH2) | 256 (≈ 295 µg/mL) | 8 (≈ 9.23 µg/mL) | ≥ 512 | 16 (≈ 18.5 µg/mL) | 128 (≈ 148 µg/mL) | 8 (≈ 9.23 µg/mL) | 128 (≈ 148 µg/mL) | ≥ 512 | >= 512 uM | ≥ 512 | 76.1 (≈ 87.8 µg/mL) | 76.1 (≈ 87.8 µg/mL) | 6.73 | 6.73 | 64 (≈ 73.8 µg/mL) | 8 | 90.5 (≈ 104 µg/mL) | 5.66 | 0.5625 | Activity [27]: inactive; Activity [28]: inactive; Activity [29]: Tde; Activity [30]: Tde; half-life [31]: 2.24 h; Time [32]: 12.14 min; Activity [33]: Active; Activity [34]: Active; Activity [35]: Active; Activity [36]: inactive; Activity [37]: Active; Activity [38]: Active; Activity [39]: inactive; Activity [40]: Active; Activity [41]: inactive; Activity [42]: inactive; Activity [43]: Active |
